Key:
[1] = target: AMP-activated protein kinase, AMPK; assay: Inhibition of AMPK (unknown origin) after 60 mins by TR-FRET assay; parameters: species or system Homo sapiens
Aurora kinase A = target: T1, Aurora kinase A (Homo sapiens, UniProt O14965); assay: Inhibition of AURKA (unknown origin) after 60 mins by TR-FRET assay
T1 sequence (O14965 whole entry): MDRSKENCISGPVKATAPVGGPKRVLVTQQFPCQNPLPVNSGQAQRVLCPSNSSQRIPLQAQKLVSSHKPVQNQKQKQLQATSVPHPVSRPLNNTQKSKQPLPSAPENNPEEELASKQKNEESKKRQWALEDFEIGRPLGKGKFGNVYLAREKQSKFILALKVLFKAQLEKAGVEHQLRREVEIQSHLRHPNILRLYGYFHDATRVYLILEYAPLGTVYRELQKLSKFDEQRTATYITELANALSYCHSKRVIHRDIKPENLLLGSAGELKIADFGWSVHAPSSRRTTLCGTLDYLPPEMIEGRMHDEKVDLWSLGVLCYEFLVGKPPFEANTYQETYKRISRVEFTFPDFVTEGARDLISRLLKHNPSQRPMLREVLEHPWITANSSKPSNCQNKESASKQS

[2] = target: Tyrosine-protein kinase BTK (Homo sapiens, UniProt Q06187); assay: Inhibition of BTK (unknown origin) after 60 mins by TR-FRET assay
[3] = target: Calcium/calmodulin-dependent protein kinase type 1D (Homo sapiens, UniProt Q8IU85); assay: Inhibition of human CAMK1D (unknown origin) after 60 mins by TR-FRET assay
Chain of Calcium/calmodulin-dependent protein kinase type 1D (Q8IU85 whole entry): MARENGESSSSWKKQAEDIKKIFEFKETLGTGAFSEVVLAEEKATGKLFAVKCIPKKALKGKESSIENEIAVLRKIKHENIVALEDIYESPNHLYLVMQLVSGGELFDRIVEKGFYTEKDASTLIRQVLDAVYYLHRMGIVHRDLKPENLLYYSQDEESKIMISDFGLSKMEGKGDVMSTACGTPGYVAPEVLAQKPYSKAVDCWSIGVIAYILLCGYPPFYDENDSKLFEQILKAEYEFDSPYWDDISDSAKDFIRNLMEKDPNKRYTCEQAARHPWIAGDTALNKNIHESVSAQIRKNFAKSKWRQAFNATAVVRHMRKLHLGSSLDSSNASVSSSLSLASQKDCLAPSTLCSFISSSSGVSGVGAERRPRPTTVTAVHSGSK

[4] = target: Calcium/calmodulin-dependent protein kinase type II subunit alpha (Homo sapiens, UniProt Q9UQM7); assay: Inhibition of human CAMK2A (unknown origin) after 60 mins by TR-FRET assay
Chain of Calcium/calmodulin-dependent protein kinase type II subunit alpha (Q9UQM7 whole entry): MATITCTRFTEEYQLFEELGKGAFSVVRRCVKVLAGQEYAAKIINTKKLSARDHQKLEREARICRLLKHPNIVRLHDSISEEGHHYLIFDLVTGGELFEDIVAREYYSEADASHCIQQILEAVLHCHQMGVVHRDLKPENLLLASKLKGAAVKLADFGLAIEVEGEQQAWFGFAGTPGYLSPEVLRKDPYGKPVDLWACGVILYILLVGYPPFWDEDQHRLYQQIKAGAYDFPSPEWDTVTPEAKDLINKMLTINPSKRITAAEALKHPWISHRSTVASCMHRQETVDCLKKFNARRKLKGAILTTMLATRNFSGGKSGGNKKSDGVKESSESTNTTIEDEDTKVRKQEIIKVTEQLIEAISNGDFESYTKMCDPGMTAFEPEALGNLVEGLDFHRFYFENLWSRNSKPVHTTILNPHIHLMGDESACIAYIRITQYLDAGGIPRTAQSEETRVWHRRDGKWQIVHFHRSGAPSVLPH

[5] = target: Dual specificity protein kinase CLK2 (Homo sapiens, UniProt P49760); assay: Inhibition of CLK2 (unknown origin) after 60 mins by TR-FRET assay
Chain of Dual specificity protein kinase CLK2 (P49760 whole entry): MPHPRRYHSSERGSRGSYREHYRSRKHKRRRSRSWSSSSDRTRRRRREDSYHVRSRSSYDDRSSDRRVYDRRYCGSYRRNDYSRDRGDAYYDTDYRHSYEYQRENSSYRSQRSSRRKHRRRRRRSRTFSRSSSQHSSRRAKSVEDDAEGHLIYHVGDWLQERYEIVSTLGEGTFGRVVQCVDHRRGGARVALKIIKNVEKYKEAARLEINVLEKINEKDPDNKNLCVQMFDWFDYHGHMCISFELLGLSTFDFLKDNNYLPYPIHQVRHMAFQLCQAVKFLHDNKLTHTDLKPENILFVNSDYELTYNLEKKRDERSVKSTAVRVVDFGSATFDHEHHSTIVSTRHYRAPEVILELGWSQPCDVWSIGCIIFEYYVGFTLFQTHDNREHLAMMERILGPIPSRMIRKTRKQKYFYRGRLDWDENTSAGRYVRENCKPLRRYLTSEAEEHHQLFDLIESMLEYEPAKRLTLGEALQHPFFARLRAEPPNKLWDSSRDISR

[6] = target: G protein-coupled receptor kinase 5 (Homo sapiens, UniProt P34947); assay: Inhibition of GRK5 (unknown origin) after 60 mins by TR-FRET assay
[7] = target: Insulin-like growth factor 1 receptor (Homo sapiens, UniProt P08069); assay: Inhibition of IGF1R (unknown origin) after 60 mins by TR-FRET assay
Chain of Insulin-like growth factor 1 receptor (P08069 31-736 limits assumed): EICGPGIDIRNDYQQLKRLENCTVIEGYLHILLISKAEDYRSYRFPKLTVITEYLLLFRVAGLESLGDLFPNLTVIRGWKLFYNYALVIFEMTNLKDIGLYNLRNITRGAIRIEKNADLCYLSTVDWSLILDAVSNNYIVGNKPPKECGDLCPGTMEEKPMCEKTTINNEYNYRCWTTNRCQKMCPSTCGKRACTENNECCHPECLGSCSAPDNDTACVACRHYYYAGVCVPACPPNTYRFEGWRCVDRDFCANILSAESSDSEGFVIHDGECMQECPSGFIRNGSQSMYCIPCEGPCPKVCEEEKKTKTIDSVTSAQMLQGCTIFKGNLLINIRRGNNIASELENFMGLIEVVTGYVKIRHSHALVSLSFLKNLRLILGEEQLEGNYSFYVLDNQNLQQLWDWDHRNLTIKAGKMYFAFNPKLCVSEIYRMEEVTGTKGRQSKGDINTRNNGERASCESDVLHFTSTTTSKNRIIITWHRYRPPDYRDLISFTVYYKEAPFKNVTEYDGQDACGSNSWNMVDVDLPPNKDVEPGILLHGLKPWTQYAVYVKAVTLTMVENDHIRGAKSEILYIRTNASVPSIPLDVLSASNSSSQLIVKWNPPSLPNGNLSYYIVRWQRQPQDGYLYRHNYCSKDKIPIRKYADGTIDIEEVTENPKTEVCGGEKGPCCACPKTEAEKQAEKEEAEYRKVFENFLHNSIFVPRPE
Chain of Insulin-like growth factor 1 receptor (P08069 741-1367 limits assumed): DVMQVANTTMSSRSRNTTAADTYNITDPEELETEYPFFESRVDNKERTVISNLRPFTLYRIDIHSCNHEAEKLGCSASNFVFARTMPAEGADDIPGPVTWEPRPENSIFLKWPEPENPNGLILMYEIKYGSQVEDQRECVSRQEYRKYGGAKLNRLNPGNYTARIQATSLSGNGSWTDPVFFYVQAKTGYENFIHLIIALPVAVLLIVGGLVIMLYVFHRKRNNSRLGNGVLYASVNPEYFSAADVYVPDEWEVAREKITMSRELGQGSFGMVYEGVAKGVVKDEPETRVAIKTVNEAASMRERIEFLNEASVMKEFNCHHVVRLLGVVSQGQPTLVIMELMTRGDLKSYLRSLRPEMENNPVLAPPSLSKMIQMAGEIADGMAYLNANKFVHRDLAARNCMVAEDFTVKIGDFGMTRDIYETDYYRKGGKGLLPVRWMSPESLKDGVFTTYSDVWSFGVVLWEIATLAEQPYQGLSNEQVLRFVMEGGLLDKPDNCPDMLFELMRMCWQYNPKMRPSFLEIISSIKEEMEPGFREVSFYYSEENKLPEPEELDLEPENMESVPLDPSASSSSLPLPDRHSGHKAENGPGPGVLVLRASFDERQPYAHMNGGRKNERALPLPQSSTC

[8] = target: T2, Tyrosine-protein kinase JAK3 (Homo sapiens, UniProt P52333); assay: Inhibition of JAK3 (unknown origin) after 60 mins by TR-FRET assay
T2 sequence (P52333 whole entry): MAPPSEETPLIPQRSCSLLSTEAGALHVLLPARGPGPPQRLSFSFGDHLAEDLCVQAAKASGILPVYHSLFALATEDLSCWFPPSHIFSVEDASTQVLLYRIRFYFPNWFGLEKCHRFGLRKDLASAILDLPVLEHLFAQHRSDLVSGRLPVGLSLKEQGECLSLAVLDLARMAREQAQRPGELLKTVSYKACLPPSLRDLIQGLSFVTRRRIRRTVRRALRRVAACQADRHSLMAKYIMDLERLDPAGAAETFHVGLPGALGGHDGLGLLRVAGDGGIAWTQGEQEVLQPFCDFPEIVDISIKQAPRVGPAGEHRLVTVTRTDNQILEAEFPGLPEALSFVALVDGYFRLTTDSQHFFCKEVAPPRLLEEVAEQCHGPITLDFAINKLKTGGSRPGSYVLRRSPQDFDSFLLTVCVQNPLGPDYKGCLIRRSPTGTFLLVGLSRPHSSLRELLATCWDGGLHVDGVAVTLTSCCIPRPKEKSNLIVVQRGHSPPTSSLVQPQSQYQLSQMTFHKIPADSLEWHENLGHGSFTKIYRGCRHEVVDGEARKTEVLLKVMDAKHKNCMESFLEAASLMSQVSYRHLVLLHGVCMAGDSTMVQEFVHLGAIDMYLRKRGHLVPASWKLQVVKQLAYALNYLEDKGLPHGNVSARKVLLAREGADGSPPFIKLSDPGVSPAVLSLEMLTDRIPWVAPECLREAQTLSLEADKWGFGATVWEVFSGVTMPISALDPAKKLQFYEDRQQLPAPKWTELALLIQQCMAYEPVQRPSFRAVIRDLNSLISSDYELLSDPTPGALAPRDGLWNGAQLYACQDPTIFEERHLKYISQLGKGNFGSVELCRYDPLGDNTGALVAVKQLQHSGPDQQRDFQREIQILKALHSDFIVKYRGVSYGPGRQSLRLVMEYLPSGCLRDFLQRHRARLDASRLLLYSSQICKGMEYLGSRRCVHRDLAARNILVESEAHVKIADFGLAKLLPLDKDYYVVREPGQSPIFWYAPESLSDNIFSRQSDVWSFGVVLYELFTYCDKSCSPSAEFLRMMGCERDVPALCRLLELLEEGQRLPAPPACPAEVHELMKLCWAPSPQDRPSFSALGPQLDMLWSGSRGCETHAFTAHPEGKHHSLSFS

[9] = target: Mitogen-activated protein kinase kinase kinase kinase 4 (Homo sapiens, UniProt O95819); assay: Inhibition of MAP4K4 (unknown origin) after 60 mins by TR-FRET assay
Chain of Mitogen-activated protein kinase kinase kinase kinase 4 (O95819 whole entry): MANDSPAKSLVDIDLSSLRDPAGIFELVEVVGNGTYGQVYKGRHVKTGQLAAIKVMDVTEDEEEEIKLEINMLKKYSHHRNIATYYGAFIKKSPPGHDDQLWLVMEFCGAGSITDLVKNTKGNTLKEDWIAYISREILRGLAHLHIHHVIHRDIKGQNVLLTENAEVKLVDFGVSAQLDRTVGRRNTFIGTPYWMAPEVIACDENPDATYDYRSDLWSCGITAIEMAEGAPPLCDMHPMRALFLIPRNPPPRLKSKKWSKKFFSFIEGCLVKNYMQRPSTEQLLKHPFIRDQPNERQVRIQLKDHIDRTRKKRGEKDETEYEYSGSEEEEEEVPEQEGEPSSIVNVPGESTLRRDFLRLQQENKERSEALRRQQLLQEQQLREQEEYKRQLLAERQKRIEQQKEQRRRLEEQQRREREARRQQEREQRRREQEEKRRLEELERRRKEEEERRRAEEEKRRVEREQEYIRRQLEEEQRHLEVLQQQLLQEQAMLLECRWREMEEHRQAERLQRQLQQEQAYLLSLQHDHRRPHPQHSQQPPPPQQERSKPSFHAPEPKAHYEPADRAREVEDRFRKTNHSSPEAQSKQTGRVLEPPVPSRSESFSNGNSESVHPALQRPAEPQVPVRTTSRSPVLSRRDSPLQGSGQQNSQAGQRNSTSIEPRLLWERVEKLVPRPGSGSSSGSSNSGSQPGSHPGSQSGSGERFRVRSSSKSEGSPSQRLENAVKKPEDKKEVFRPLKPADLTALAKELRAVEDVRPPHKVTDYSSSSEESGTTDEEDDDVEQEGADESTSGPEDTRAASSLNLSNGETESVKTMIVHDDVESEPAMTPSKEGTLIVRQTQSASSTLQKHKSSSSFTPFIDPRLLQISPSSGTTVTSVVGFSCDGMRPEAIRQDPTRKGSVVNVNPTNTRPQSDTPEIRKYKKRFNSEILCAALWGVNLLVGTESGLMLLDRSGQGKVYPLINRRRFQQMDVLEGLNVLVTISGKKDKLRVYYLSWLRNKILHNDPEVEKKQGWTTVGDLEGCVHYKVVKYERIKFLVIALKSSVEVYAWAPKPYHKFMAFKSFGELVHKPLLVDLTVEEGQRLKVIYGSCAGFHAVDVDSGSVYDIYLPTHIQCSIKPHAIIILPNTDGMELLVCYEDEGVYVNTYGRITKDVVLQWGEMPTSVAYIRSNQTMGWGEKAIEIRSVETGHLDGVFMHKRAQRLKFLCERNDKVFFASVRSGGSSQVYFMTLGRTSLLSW

[10] = target: Dual specificity mitogen-activated protein kinase kinase 1 (Homo sapiens, UniProt Q02750); assay: Inhibition of MEK1 (unknown origin) after 60 mins by TR-FRET assay
Chain of Dual specificity mitogen-activated protein kinase kinase 1 (Q02750 whole entry): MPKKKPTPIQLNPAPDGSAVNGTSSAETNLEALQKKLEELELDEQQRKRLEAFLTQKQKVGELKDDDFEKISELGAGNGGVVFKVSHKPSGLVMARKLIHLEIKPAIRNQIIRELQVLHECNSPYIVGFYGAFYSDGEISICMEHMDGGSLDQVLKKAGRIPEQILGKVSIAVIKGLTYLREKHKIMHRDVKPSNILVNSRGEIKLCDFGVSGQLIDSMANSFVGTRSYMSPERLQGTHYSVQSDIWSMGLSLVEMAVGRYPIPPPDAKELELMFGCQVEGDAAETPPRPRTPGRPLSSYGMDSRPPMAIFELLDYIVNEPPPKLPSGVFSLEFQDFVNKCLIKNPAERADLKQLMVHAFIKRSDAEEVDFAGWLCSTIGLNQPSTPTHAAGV

[11] = target: Dual specificity mitogen-activated protein kinase kinase 2 (Homo sapiens, UniProt P36507); assay: Inhibition of MEK2 (unknown origin) after 60 mins by TR-FRET assay
[12] = target: T3, Serine/threonine-protein kinase Nek2 (Homo sapiens, UniProt P51955); assay: Inhibition of NEK2 (unknown origin) after 60 mins by TR-FRET assay
T3 sequence (P51955 whole entry): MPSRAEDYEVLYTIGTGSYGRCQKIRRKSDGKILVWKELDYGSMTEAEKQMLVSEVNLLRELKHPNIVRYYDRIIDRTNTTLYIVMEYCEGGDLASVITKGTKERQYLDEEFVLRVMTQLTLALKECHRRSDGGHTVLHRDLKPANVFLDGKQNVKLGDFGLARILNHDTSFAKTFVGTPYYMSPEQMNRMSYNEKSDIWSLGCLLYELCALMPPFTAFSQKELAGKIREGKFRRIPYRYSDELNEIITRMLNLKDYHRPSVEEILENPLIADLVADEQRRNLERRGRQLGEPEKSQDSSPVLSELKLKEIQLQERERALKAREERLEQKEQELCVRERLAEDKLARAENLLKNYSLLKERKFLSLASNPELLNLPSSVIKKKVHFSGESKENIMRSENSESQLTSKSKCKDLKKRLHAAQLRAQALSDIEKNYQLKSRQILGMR

[13] = target: Rho-associated protein kinase 2 (Homo sapiens, UniProt O75116); assay: Inhibition of ROCK2 (unknown origin) after 60 mins by TR-FRET assay
[14] = target: NT-3 growth factor receptor (Homo sapiens, UniProt Q16288); assay: Inhibition of TrkC (unknown origin) after 60 mins by TR-FRET assay
[15] = target: Death-associated protein kinase 3 (Homo sapiens, UniProt O43293); assay: Inhibition of ZIPK (unknown origin) after 60 mins by TR-FRET assay
Chain of Death-associated protein kinase 3 (O43293 whole entry): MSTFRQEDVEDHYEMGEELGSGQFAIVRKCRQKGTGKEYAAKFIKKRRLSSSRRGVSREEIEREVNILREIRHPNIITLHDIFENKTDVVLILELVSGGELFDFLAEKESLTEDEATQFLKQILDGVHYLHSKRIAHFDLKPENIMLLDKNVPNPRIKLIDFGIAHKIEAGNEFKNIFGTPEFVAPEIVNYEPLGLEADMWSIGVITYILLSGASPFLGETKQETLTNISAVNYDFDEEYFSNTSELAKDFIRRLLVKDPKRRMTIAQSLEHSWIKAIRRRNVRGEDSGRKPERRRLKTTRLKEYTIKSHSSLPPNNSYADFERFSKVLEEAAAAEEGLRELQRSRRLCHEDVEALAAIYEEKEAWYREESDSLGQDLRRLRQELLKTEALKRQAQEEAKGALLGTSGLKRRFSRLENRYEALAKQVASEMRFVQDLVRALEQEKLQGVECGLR

[16] = Unbound clearance in rat microsomes; assay type: ADME, Microsome

IC50 [1] [µM]	IC50 (Aurora kinase A) [µM]	IC50 [2] [µM]	IC50 [3] [µM]	IC50 [4] [µM]	IC50 [5] [µM]	IC50 [6] [µM]	IC50 [7] [µM]	IC50 [8] [µM]	IC50 [9] [µM]	IC50 [10] [µM]	IC50 [11] [µM]	IC50 [12] [µM]	IC50 [13] [µM]	IC50 [14] [µM]	CL free [16] [L/h/kg]	Structure (SMILES)	IC50 [15] [µM]
> 10	> 10	> 10	> 10	> 10	> 10	9.96	> 10	> 10	9.43	> 10	> 10	> 10	> 10	> 10	–	Cc1n[nH]c2cc(Nc3nc(NC4CC4)c4occc4n3)ccc12	4.98
> 10	4.05	5.02	> 10	> 10	> 10	> 10	6.02	> 10	> 10	> 10	> 10	> 10	6.32	7.7	< 4.9	CC1(C)OCC(=O)Nc2cc(Nc3nc(NCC(F)(F)F)c4occc4n3)ccc21	> 10
> 10	> 10	> 10	> 10	> 10	6.44	8.12	> 10	> 10	> 10	> 10	> 10	> 10	–	> 10	15.3	FC(F)(F)CNc1nc(Nc2ccc3cn[nH]c3c2)nc2ccoc12	–
> 10	> 10	> 10	> 10	> 10	> 10	> 10	> 10	> 10	> 10	> 10	> 10	> 10	> 10	> 10	96	FC(F)(F)CNc1nc(Nc2ccc(N3CCOCC3)c(Cl)c2)nc2ccoc12	> 10

Reference: ChEMBL document CHEMBL4007384, “Synthesis and optimization of furano[3,2-d]pyrimidines as selective spleen tyrosine kinase (Syk) inhibitors” (Bioorg Med Chem Lett, 2016)
